# Measured values taken from the supplement of paper PMC11208160.
# Test: recombinant UMI read abundance after kanamycin selection (control-corrected) (log10(CPM+1)); higher = more efficient recombination; extreme values may be limits of the assay; sequences stand for … in AGTGCAGAGAAAATCGGCCAGTTTTCTCTGCCTGCAGTCCGCATGCCGTGGGACCCCTTGGGTTCTAACCTGTTGCCTAGATTTATGCAGCGGACTGCCTTTCTCCCAAAGTGATAAACCGG…AGGTTGGTTTCACT; site = the 11-nt donor
# In short: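 Values are reported as log10(CPM+1), obtained by converting sequencing counts to CPM, averaging replicates and scaling by control-derived factors. The counts came from recombinant UMIs amplified by PCR across the donor–target junction. These UMIs came from a pooled Escherichia coli screen of donor and donor-binding-loop pairs for the IS621 bridge recombinase, plated with IPTG (0.07 mM) plus kanamycin or left unselected, in two replicates each.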
# 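Note: IS621 bridge recombinase in Escherichia coli cells against a fixed T5 target plasmid.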
row,Sequence,recombinant UMI read abundance (log10)
1,TCCATTTCATGGACCGGTTTTCCCGGTAATCCGTATTTGCC (site TCCACTTCTGG),0
2,TCCATTTCATGGACCGGTTTTCCCGGTAATCCGTATTTGCC (site TCCAGTTCTGG),0
3,TCCCAATCATGGACCGGTTTTCCCGGTAATCCGTATTTGTG (site TCCCAATCTCA),0.00796
4,TCCCACCCATGGACCGGTTTTCCCGGTAATCCGTATTTGAG (site TCCCACCCTCT),0.00907
5,TCCCATCCATGGACCGGTTTTCCCGGTAATCCGTATTTGGC (site TCCCATCCTGC),0
6,TCCCCAACATGGACCGGTTTTCCCGGTAATCCGTATTTGTC (site TCCCCAACTGA),0
7,TCCCCTGCATGGACCGGTTTTCCCGGTAATCCGTATTTGAT (site TCCCCTGCTAT),0.00458
8,TCCCGACCATGGACCGGTTTTCCCGGTAATCCGTATTTGAG (site TCCCGACCTCT),0.00764
9,TCCCGGACATGGACCGGTTTTCCCGGTAATCCGTATTTGTC (site TCCCGGACTGA),0.905
10,TCCCGTTCATGGACCGGTTTTCCCGGTAATCCGTATTTGAA (site TCCCGTTCTTT),0
11,TCCCTACCATGGACCGGTTTTCCCGGTAATCCGTATTTGAT (site TCCCTACCTAT),0
12,TCCCTTCCATGGACCGGTTTTCCCGGTAATCCGTATTTGAG (site TCCCTTCCTCT),0.0101
13,TCCGATGCATGGACCGGTTTTCCCGGTAATCCGTATTTGTT (site TCCGATGCTAA),0
14,TCCGGGCCATGGACCGGTTTTCCCGGTAATCCGTATTTGAC (site TCCGGGCCTGT),0
15,TCCGTCCCATGGACCGGTTTTCCCGGTAATCCGTATTTGCA (site TCCGTCCCTTG),0
16,TCCTAATCATGGACCGGTTTTCCCGGTAATCCGTATTTGTT (site TCCTAATCTAA),0
17,TCCTAGACATGGACCGGTTTTCCCGGTAATCCGTATTTGGG (site ACCTAGACTCC),0.034
18,TCCTAGACATGGACCGGTTTTCCCGGTAATCCGTATTTGGG (site CCCTAGACTCC),0.0212
19,TCCTAGACATGGACCGGTTTTCCCGGTAATCCGTATTTGGG (site GCCTAGACTCC),0.0199
20,TCCTAGACATGGACCGGTTTTCCCGGTAATCCGTATTTGGG (site TCCTAGACTCC),0.00458
21,TCCTAGTCATGGACCGGTTTTCCCGGTAATCCGTATTTGTA (site TCCTAGTCTTA),0.256
22,TCCTATACATGGACCGGTTTTCCCGGTAATCCGTATTTGGA (site TCCTATACTTC),0.0113
23,TCCTCATCATGGACCGGTTTTCCCGGTAATCCGTATTTGGA (site TCCTCATCTTC),0.00521

row,Sequence,recombinant UMI read abundance (log10)
1,TCCTTATCATGGACCGGTTTTCCCGGTAATCCGTATTTGTT (site TCCTTATCTAA),0
2,TCCTTTGCATGGACCGGTTTTCCCGGTAATCCGTATTTGTG (site TCCTTTGCTCA),0.0203
3,TCGAAAACATGGACCGGTTTTCCCGGTAATCCGTATTTGTT (site TCGAAAACTAA),0
4,TCGAATTCATGGACCGGTTTTCCCGGTAATCCGTATTTGCC (site TCAAATTCTGG),0
5,TCGAATTCATGGACCGGTTTTCCCGGTAATCCGTATTTGCC (site TCCAATTCTGG),0
6,TCGAATTCATGGACCGGTTTTCCCGGTAATCCGTATTTGCC (site TCGAATTCTGG),0
7,TCGAATTCATGGACCGGTTTTCCCGGTAATCCGTATTTGCC (site TCTAATTCTGG),0.193
8,TCGACACCATGGACCGGTTTTCCCGGTAATCCGTATTTGGC (site TCGACACCTGC),0
9,TCGACGGCATGGACCGGTTTTCCCGGTAATCCGTATTTGAG (site TCGACGGCTCT),0.666
10,TCGACTCCATGGACCGGTTTTCCCGGTAATCCGTATTTGTC (site TCGACTCCTGA),0
11,TCGAGTCCATGGACCGGTTTTCCCGGTAATCCGTATTTGAA (site TCGAGTCCTTT),0.307
12,TCGCCTGCATGGACCGGTTTTCCCGGTAATCCGTATTTGGT (site TCGCCTGCTAC),0.0077
13,TCGCTCCCATGGACCGGTTTTCCCGGTAATCCGTATTTGAA (site TCGCTCCCTTT),0.0848
14,TCGGAAACATGGACCGGTTTTCCCGGTAATCCGTATTTGGT (site TCGGAAACTAC),0.88
15,TCGGAACCATGGACCGGTTTTCCCGGTAATCCGTATTTGTA (site TCGGAACCTTA),0
16,TCGGAATCATGGACCGGTTTTCCCGGTAATCCGTATTTGCG (site TAGGAATCTCG),0.861
17,TCGGAATCATGGACCGGTTTTCCCGGTAATCCGTATTTGCG (site TCGGAATCTCG),1.26
18,TCGGAATCATGGACCGGTTTTCCCGGTAATCCGTATTTGCG (site TGGGAATCTCG),0.211
19,TCGGAATCATGGACCGGTTTTCCCGGTAATCCGTATTTGCG (site TTGGAATCTCG),1.03
20,TCGGACCCATGGACCGGTTTTCCCGGTAATCCGTATTTGAA (site TCGGACCCTTT),0.274
21,TCGGACTCATGGACCGGTTTTCCCGGTAATCCGTATTTGTT (site TCGGACTCTAA),3.01
22,TCGGCCCCATGGACCGGTTTTCCCGGTAATCCGTATTTGTT (site TCGGCCCCTAA),0.0126
23,TCGGGAACATGGACCGGTTTTCCCGGTAATCCGTATTTGAT (site TCGGGAACTAT),1.61

row,Sequence,recombinant UMI read abundance (log10)
1,TCGGTACCATGGACCGGTTTTCCCGGTAATCCGTATTTGCC (site TCGGTACCTGG),0
2,TCGGTATCATGGACCGGTTTTCCCGGTAATCCGTATTTGGT (site TCGGTATCTAC),1.89
3,TCGGTTGCATGGACCGGTTTTCCCGGTAATCCGTATTTGGC (site TCGGTTGCTGC),0.849
4,TCGTTTCCATGGACCGGTTTTCCCGGTAATCCGTATTTGTA (site TCGTTTCCTTA),1.36
5,TCTAACCCATGGACCGGTTTTCCCGGTAATCCGTATTTGCA (site TCTAACCCTTG),0
6,TCTACACCATGGACCGGTTTTCCCGGTAATCCGTATTTGAC (site TATACACCTGT),0.00982
7,TCTACACCATGGACCGGTTTTCCCGGTAATCCGTATTTGAC (site TCTACACCTGT),0
8,TCTACACCATGGACCGGTTTTCCCGGTAATCCGTATTTGAC (site TGTACACCTGT),0
9,TCTACACCATGGACCGGTTTTCCCGGTAATCCGTATTTGAC (site TTTACACCTGT),0
10,TCTACGTCATGGACCGGTTTTCCCGGTAATCCGTATTTGTC (site TCTACGTCTGA),0
11,TCTACTGCATGGACCGGTTTTCCCGGTAATCCGTATTTGCC (site ACTACTGCTGG),0
12,TCTACTGCATGGACCGGTTTTCCCGGTAATCCGTATTTGCC (site CCTACTGCTGG),0
13,TCTACTGCATGGACCGGTTTTCCCGGTAATCCGTATTTGCC (site GCTACTGCTGG),0
14,TCTACTGCATGGACCGGTTTTCCCGGTAATCCGTATTTGCC (site TCTACTGCTGG),0
15,TCTAGATCATGGACCGGTTTTCCCGGTAATCCGTATTTGCA (site TCTAGATCTTG),0
16,TCTAGGTCATGGACCGGTTTTCCCGGTAATCCGTATTTGTT (site TCTAGGTCTAA),0
17,TCTAGTTCATGGACCGGTTTTCCCGGTAATCCGTATTTGTG (site TCTAGTTCTCA),0.0111
18,TCTATAACATGGACCGGTTTTCCCGGTAATCCGTATTTGCT (site TCTATAACTAG),0
19,TCTGAGCCATGGACCGGTTTTCCCGGTAATCCGTATTTGAT (site TCTGAGCCTAT),0.00231
20,TCTGAGCCATGGACCGGTTTTCCCGGTAATCCGTATTTGTT (site TCTGAGCCTAA),0.0283
21,TCTGCGGCATGGACCGGTTTTCCCGGTAATCCGTATTTGCT (site TATGCGGCTAG),0.0269
22,TCTGCGGCATGGACCGGTTTTCCCGGTAATCCGTATTTGCT (site TCTGCGGCTAG),0.246
